Data taken from patent US20080090805A1, “CB-1 MODULATING COMPOUNDS AND THEIR USE” (ACADIA PHARMACEUTICALS INC., priority 2005, published 2008).

How the values were obtained:
[1] = in vitro; details: human, microsomes, pH 7.4
[2] = in vitro; details: rat, microsomes, pH 7.4
[3] = molecular target: T1, hERG (Homo sapiens, UniProt Q12809); test: in vitro; details: pH 7.4
[4] = molecular target: T1, hERG; test: HERG safety study (whole cell recordings, CHO cells); details: CHO cells stably expressing hERG channels, pH 7.4

T1 sequence (Q12809 whole entry): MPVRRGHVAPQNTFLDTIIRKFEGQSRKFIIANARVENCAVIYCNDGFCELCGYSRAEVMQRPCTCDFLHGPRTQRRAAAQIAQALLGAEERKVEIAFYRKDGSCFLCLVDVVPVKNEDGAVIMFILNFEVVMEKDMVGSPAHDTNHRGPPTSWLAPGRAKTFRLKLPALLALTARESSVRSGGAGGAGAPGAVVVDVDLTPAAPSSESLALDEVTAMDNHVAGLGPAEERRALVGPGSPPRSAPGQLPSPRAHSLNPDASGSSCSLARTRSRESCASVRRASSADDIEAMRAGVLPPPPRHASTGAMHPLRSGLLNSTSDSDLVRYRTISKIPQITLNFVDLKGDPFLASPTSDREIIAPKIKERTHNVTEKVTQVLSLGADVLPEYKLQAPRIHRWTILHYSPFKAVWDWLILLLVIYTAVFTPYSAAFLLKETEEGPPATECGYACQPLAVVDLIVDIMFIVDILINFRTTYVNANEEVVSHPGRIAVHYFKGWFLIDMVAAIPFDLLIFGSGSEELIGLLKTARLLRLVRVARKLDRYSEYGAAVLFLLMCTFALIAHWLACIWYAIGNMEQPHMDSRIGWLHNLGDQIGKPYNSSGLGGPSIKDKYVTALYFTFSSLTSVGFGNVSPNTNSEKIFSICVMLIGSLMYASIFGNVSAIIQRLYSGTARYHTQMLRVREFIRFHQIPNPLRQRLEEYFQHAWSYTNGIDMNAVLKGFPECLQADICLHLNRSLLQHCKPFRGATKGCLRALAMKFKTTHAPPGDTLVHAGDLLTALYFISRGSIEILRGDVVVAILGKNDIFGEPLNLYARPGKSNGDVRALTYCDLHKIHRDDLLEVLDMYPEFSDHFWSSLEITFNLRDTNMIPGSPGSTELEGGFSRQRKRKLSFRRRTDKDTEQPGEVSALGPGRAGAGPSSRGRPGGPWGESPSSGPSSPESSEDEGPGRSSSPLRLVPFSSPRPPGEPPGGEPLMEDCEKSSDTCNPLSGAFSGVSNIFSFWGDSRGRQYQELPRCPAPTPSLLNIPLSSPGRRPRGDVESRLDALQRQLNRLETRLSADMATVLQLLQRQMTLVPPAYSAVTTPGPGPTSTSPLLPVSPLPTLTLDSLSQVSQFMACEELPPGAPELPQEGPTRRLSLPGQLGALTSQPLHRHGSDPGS

CC(C)CCNC(=O)c1ccc2c(c1)N=C(c1ccc(F)cc1)c1ccccc1S2 [drawing 1771]
microsomal CLint at 1 μM [1]: 52 µL/min/mg
microsomal CLint at 1 μM [2]: 214 µL/min/mg

O=C(NCc1ccccc1Cl)c1ccc2c(c1)N=C(c1ccc(Cl)cc1)c1ccccc1S2 [drawing 1782]
microsomal CLint at 1 μM [1]: 17 µL/min/mg
microsomal CLint at 1 μM [2]: 33 µL/min/mg

CC(C)CNC(=O)c1ccc2c(c1)N=C(c1ccc(Br)cc1)c1ccccc1S2 [drawing 1791]
microsomal CLint at 1 μM [1]: 19 µL/min/mg
microsomal CLint at 1 μM [2]: 115 µL/min/mg

O=C(NCc1ccccc1Cl)c1ccc2c(c1)N=C(c1ccccc1F)c1ccccc1S2 [drawing 1794]
microsomal CLint at 1 μM [1]: 59 µL/min/mg
microsomal CLint at 1 μM [2]: 181 µL/min/mg

CC(CNC(=O)c1ccc2c(c1)N=C(c1ccc(F)cc1)c1ccccc1S2)c1ccccc1 (centres unmarked) [drawing 1797]
microsomal CLint at 1 μM [1]: 108 µL/min/mg
microsomal CLint at 1 μM [2]: 532 µL/min/mg

O=C(NCc1cccc(Cl)c1)c1ccc2c(c1)N=C(N1CCCCC1)c1ccccc1S2(=O)=O [drawing 1798]
microsomal CLint at 1 μM [1]: 77 µL/min/mg
microsomal CLint at 1 μM [2]: 217 µL/min/mg

O=C(NN1CCCCC1)c1ccc2c(c1)N=C(c1ccc(F)cc1)c1ccccc1S2 [drawing 1815]
inhibition at 1 µM [3]: 91%

CC(C)CNC(=O)c1ccc2c(c1)N=C(c1ccc(Cl)cc1)c1ccccc1S2 [drawing 1818]
inhibition at 1 µM [3]: 69%

O=C(NN1CCCCCC1)c1ccc2c(c1)N=C(c1cccc(Cl)c1)c1ccccc1S2 [drawing 1825]
inhibition at 1 µM [4]: 97%

CCCNC(=O)c1ccc2c(c1)N=C(c1ccc(Cl)cc1)c1ccccc1S2 [drawing 1826]
inhibition at 1 µM [4]: 55%

O=C(NN1CCCCCC1)c1ccc2c(c1)N=C(c1cccc(F)c1)c1ccccc1S2 [drawing 1827]
inhibition at 1 µM [3]: 88%

O=C(NN1CCCCC1)c1ccc2c(c1)N=C(C1CCCCC1)c1ccccc1S2 [drawing 1828]
inhibition at 1 µM [4]: 29%

O=C(NN1CCCCC1)c1ccc2c(c1)N=C(c1ccc(Cl)s1)c1ccccc1S2 [drawing 1829]
inhibition at 1 µM [3]: 66%

O=C(NCc1cccnc1)c1ccc2c(c1)N=C(c1ccc(Cl)c(Cl)c1)c1ccccc1S2 [drawing 1830]
inhibition at 1 µM [4]: 40%

O=C(NN1CCCCC1)c1ccc2c(c1)N=C(c1ccc(Cl)cc1)c1ccccc1S2 [drawing 1831]
inhibition at 1 µM [4]: 92%

O=C(NCCCC(F)(F)F)c1ccc2c(c1)N=C(c1ccccn1)c1ccccc1S2 [drawing 1832]
inhibition at 1 µM [4]: 28%

CC(C)CNC(=O)c1ccc2c(c1)N=C(c1ccc(Cl)c(Cl)c1)c1ccccc1S2 [drawing 1833]
inhibition at 1 µM [4]: 16%

O=C(NC1CCCCC1)c1ccc2c(c1)N=C(c1cccc(Cl)c1)c1ccccc1S2 [drawing 1834]
inhibition at 1 µM [4]: 44%

CC(C)CNC(=O)c1ccc2c(c1)N=C(c1ccc(Cl)cc1F)c1ccccc1S2 [drawing 1835]
inhibition at 1 µM [4]: 41%

Cc1ccc(CNC(=O)c2ccc3c(c2)N=C(c2ccc(Cl)s2)c2ccccc2S3)o1 [drawing 1836]
inhibition at 1 µM [4]: 13%

O=C(NCCCC(F)(F)F)c1ccc2c(c1)N=C(c1ccsc1)c1ccccc1S2 [drawing 1837]
inhibition at 1 µM [4]: 28%

O=C(NC1CCC(F)(F)CC1)c1ccc2c(c1)N=C(c1cccc(Cl)c1)c1ccccc1S2 [drawing 1838]
inhibition at 1 µM [3]: 62%

CCCCNC(=O)c1ccc2c(c1)N=C(c1ccc(Cl)cn1)c1ccccc1S2 [drawing 1839]
inhibition at 1 µM [4]: 67%

CCCCNC(=O)c1ccc2c(c1)N=C(c1ccc(Cl)cc1)c1ccccc1[S+]2[O-] (centres unmarked) [drawing 1840]
inhibition at 1 µM [4]: 52%

CCCCNC(=O)c1ccc2c(c1)N=C(c1ccc(Cl)cn1)c1cc(F)ccc1S2 [drawing 1841]
inhibition at 1 µM [4]: 52%

CC(C)CCNC(=O)c1ccc2c(c1)N=C(c1ccccn1)c1ccccc1S2 [drawing 1842]
inhibition at 1 µM [4]: 39%
